Results on one molecule are retold here after US11813355B2, “Curcumin-loaded nanoemulsions, method of manufacture, and method of preventive treatment using the same” (UNIVERSIDAD DE CHILE, priority 2016, dated 2023).

In brackets after ≈: the same amount, converted by molar mass.

The test system of data set [1] is U937 (monoblastic leukemia). The conditions noted are these: U937, 48-hour exposure; read-out: CI50 (the source's name); cited from earlier work.
Data set [2] has as its system Molt4 (human acute lymphoblastic leukemia). The conditions noted are these: Molt4, 48-hour exposure; read-out: CI50 (the source's name); cited from earlier work.
Data set [3] deals with HL-60 (promyelocytic leukemia). Conditions: HL-60, 48-hour exposure; read-out: CI50 (the source's name); cited from earlier work.
The test system of data set [4] is Metastatic B16F10 murine melanoma cells. Kind of data set: Viability assay (MTS), B16F10 cells. It counts as cell-based. The conditions noted are these: Mus musculus, B16-F10, B16F10, 24 h treatment, read-out: IC50, decrease of proliferation/viability.
Procedure: Metastatic B16F10 murine melanoma cells were cultured in RPMI 1640 (Roswell Park Memorial Institute) supplemented with 10% FBS, 2 mM glutamine, and antibiotics (100 U/mL penicillin and 100 μg/mL streptomycin) at 37° C. in 5% CO2.
The cultured metastatic B16F10 murine melanoma cells and cultured human embryonic kidney cells (HEK293T) were seeded in 96-well plates at a density of 1×10^4 cells per well and incubated for 24 h in culture medium. […] 2% Sodium dodecyl sulfate (SDS) and a standard cell medium were used as positive and negative cell controls, respectively. Cell proliferation was evaluated by the MTS® assay, according to the manufacturer's (Promega, Madison, WI) instructions. Absorbance was evaluated at 490 nm removing any background absorbance (620 nm) in plate reader (Tecan Infinite 200 pro NanoQuant).
The next data set deals with HeLa. Conditions: read-out: CI50 (the source's name); cited from earlier work.
Data set [5] can be described thus: Persistence of curcumin fluorescence at the treatment site after tumor excision. It counts as in vivo, mice. Conditions: post-surgery.
The test system of another data set is B16F10 (murine melanoma). The conditions noted are these: B16F10, 48-hour exposure; read-out: CI50 (the source's name); cited from earlier work.
Data set [6] concerns uterine cervical cancer cell line HeLa. Kind of data set: Viability assay (CellTiter 96 MTS), HeLa cells. It counts as cell-based, human. As for the experimental part:
To further determine the effect of the formulation on cell viability, the calorimetric method of tetrazolium salt reduction (CellTiter 96®) was used to establish a linear relationship between the number of metabolically active cells and the absorption intensity. […] 2500 HeLa cells were seeded per well, in a 96-well microplate, and the cells were incubated with 100 μL of Dulbecco's Modified Eagle Medium (DMEM) culture medium enriched with 10% fetal bovine serum (FBS), at 37° C. and 5% CO2. The day after seeding, the 100 μL of medium was removed, and it was replaced by 80 μL of clean culture medium. Then 20 μL of a treatment was applied, and the cells were incubated under the same temperature and CO2 conditions. 24 hours after the treatment was applied, the treatment was removed, the cells were subsequently washed three (3) times with phosphate-buffered saline (PBS), and 80 μL of medium without indicator was added to the cells and 20 μL of MTS. The cells were incubated for 1 hour, and the absorbance was measured at a wavelength of 490 nm in a microplate reader. […] Each assay was performed in triplicate. In addition, within each assay the same treatment was applied to a minimum of 5 wells.

In a further data set the test system is B16F10 cells. Kind of data set: Matrigel invasion assay. Conditions: normalized to untreated control. It counts as cell-based, murine. As for the experimental part: B16F10 cells (5×10^4) were seeded, allowed to grow for 24 h, and treated with CUR-NEM, CUR and controls. Then, serum-starved cells (2×10^5) were seeded (24 h) over 8 μm-porous inserts covered with Matrigel (Matrigel Invasion Chamber 8.0 lm; BD Biosciences Bedford, MA, USA). […] The membranes were mounted in Mowiol, and observed under a light microscope. At least 10 fields were evaluated (at 40× magnification) to determine the number of cells per field. The values obtained were normalized to those obtained for cells without treatment (control). Averages of values from three independent experiments are shown (mean±SEM). Statistically significant differences compared with the corresponding control group are indicated (**P<0.001; ****<0.0001). Metastasis is a complex process that is known to require migration and invasion of malignant cells.

The subject of another data set is K562 (erythroleukemia). Conditions: K562, 48-hour exposure; read-out: CI50 (the source's name); cited from earlier work.

Take `COc1cc(C=CC(=O)CC(=O)C=Cc2ccc(O)c(OC)c2)ccc1O` [curcumin, 1,7-bis(4-hydroxy-3methoxyphenyl)-1,6-heptadien-3,5-dione]: the IC50 in [1] was around 30.1 µM; in [2] it was around 14.4 µM; in data set [3], around 15.7 µM; in data set [4], 34.8 ± 7.5 µg/mL (≈ 94.5 µM); in the data set on HeLa it was 13.3 µM; in the data set with B16F10 (murine melanoma), around 3.5 µM. The IC50 in [6] (Homo sapiens, 24-hour exposure, MTS, read-out: CI50 (the source's name)) was 61.8 ± 18.1 µM; in the data set on K562 (erythroleukemia), around 38.7 µM. Also, the “Curcumin fluorescence over basal levels, four (4) days after treatment” value in [5] was “not detectable”. The “Concentration of maximum effectiveness (cytotoxicity)” value in data set [6] (after 24-hour exposure) worked out at 50 µM. In the data set with B16F10 cells, this molecule showed a Reduction in invasiveness of 10 fold.
